According to patent US7449447B2, “Peptidomimetic NS3-serine protease inhibitors of hepatitis C virus” (priority 2003, dated 2008):
Where a SMILES comes first, the peptide text is derived from it. [ ]: non-standard residue; d: D form. The star is where a group is joined. Pro(3R,4S-CMe2) = CC1(C)[C@@H]2[C@@H](C(=O)O)NC[C@@H]21; Abu(4,4-F2) = N[C@@H](CC(F)F)C(=O)O; Phg = N[C@H](C(=O)O)c1ccccc1; Tle = CC(C)(C)[C@H](N)C(=O)O; Boc = CC(C)(C)OC(=O)*; βAla = NCCC(=O)O

biological target: T1, HCV NS3/NS4a serine protease (Hepatitis C virus genotype 1b, UniProt P26663); assay: Spectrophotometric assay for HCV protease inhibitory activity (chromogenic ester substrates); type: biochemical, hepatitis C virus (strain 1b); conditions: Ki Rating, Table 2; single chain NS4A21-32-GSGS-NS3 3-181 protease, 30° C., pH 6.5
T1 construct: amino terminus of the NS3 protease domain (amino acids 3-181) with a tetrapeptide linker; made in house; host or cells: E. coli
Experimental: Spectrophotometric Assay: Spectrophotometric assays for the HCV serine protease were performed on the inventive compounds by following the procedure described by R. Zhang et al., Analytical Biochemistry, 270 (1999) 268-275, the disclosure of which is incorporated herein by reference. The assay based on the proteolysis of chromogenic ester substrates is suitable for the continuous monitoring of HCV NS3 protease activity.
HCV NS3 protease (strain 1b) and its NS4A cofactor were constructed as a recombinant single chain protein. The NS4A cofactor domain (amino acid residues 21-32) was fused in frame to the amino terminus of the NS3 protease domain (amino acids 3-181) with a tetrapeptide linker. This NS4A 21-32-GSGS-NS33-181 construct was then expressed in E. coli and purified to >90% homogeneity. Kinetic parameters were determined and found to be the same as that of the full length NS31-631/NS4A1-54 protein complex produced in the baculovirus system (D. L. Sali et al, Biochemistry, 37 (1998) 3392-340). The details of the cloning, expression, purification and kinetic analysis of the of the single chain recombinant protease have been previously described (S. S. Taremi, et al. Protein Science. 7 (1998) 2143-2149.
Protein concentrations were determined by the Biorad dye method using recombinant HCV protease standards previously quantified by amino acid analysis. Prior to assay initiation, the enzyme storage buffer (50 mM sodium phosphate pH 8.0, 300 mM NaCl, 10% glycerol, 0.05% lauryl maltoside and 10 mM DTT) was exchanged for the assay buffer (25 mM MOPS pH 6.5, 300 mM NaCl, 10% glycerol, 0.05% lauryl maltoside, 5 μM EDTA and 5 μM DTT) utilizing a Biorad Bio-Spin P-6 prepacked column.
Protease Assay: HCV protease assays were performed at 30° C. using a 200 μl reaction mix in a 96-well microtiter plate. Assay buffer conditions (25 mM MOPS pH 6.5, 300 mM NaCl, 10% glycerol, 0.05% lauryl maltoside, 5 μM EDTA and 5 μM DTT) were optimized for the NS3/NS4A heterodimer (D. L. Sali et al, ibid.)). Typically, 100 μl mixtures of buffer, substrate and inhibitor were placed in wells and allowed to preincubate at 30° C. for approximately 3 minutes. One hundred μls of pre-warmed protease (30° C.) in assay buffer, was then used to initiate the reaction to produce a final concentration of 1.3 nM HCV). The Substrate cleavage by the protease was monitored over 60 minutes by measuring the release of the phenylazophenol (PAP) product at an absorbance of 370 nm with a continuous read every 30 seconds using a SpectraMax Plus microtiter plate reader (Molecular Devices, Sunnyvale, Calif.). Background hydrolysis of the substrate was subtracted. Inhibitors were tested over a range of concentrations (final DMSO concentration 4%)
Evaluation of Inhibitors The inhibition constants (Ki) for the competitive inhibitors were determined experimentally at fixed concentrations of enzyme and substrate by plotting vo/vi vs. inhibitor concentration ([I]o) according to the rearranged Michaelis-Menten equation for competitive inhibition kinetics: vo/vi=1+[I]o/(Ki(1+[S]o/Km)), where vo is the uninhibited initial velocity, vi is the initial velocity in the presence of inhibitor at any given inhibitor concentration ([I]o) and [S]o is the substrate concentration used. The resulting data were fitted using linear regression and the resulting slope, 1/(Ki(1+[S]o/Km), was used to calculate the Ki value.

T1 sequence (P26663 1013-1207, looked up, natural form): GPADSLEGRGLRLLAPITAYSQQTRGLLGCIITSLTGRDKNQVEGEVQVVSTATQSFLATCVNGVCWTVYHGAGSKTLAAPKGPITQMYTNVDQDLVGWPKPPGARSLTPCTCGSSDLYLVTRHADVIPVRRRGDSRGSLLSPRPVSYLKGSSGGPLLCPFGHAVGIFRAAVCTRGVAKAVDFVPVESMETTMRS

Structure (SMILES)	Ki
CC(C)[C@H](NC(=O)N[C@H](C(=O)N1C[C@H]2[C@@H]([C@H]1C(=O)N[C@@H](CC(F)F)C(=O)NCCc1ccc(C(=O)N(C)C)cc1)C2(C)C)C(C)(C)C)C(=O)O [Example 131]	100 to 500 nM
COC(=O)c1ccc(CCNC(=O)[C@H](CC(F)F)NC(=O)[C@@H]2[C@@H]3[C@H](CN2C(=O)[C@@H](NC(=O)N[C@H](C(=O)OC(C)(C)C)C(C)(C)C)C(C)(C)C)C3(C)C)cc1 [Example 139]	100 to 500 nM
CC(C)[C@H](NC(=O)N[C@H](C(=O)N1C[C@H]2[C@@H]([C@H]1C(=O)NC(CC(F)F)C(=O)NCCc1ccc(C(=O)O)cc1)C2(C)C)C(C)(C)C)C(=O)O (some centres unmarked) [Example 146]	> 500 nM
CCOC(=O)CCNC(=O)[C@H](CC(F)F)NC(=O)[C@@H]1[C@@H]2[C@H](CN1C(=O)[C@@H](NC(=O)OC(C)(C)C)C(C)(C)C)C2(C)C [Example 163]	> 500 nM
CC(C)[C@H](NC(=O)N[C@H](C(=O)N1C[C@H]2[C@@H]([C@H]1C(=O)NC(CC(F)F)C(=O)NCCc1ccccc1)C2(C)C)C(C)(C)C)C(=O)OC(C)(C)C (some centres unmarked) [Example 140]	100 to 500 nM
COC(=O)c1ccc(CCNC(=O)[C@H](CC(F)F)NC(=O)[C@@H]2[C@@H]3[C@H](CN2C(=O)[C@@H](NC(=O)N[C@H](CNS(=O)(=O)c2ccccc2)C(C)C)C(C)(C)C)C3(C)C)cc1 [Example 130]	100 to 500 nM
CC1(NC(=O)N[C@H](C(=O)N2C[C@H]3[C@@H]([C@H]2C(=O)N[C@@H](CC(F)F)C(=O)NCCC(=O)OC(C)(C)C)C3(C)C)C(C)(C)C)CCCCC1 [Example 155]	> 500 nM
CC(C)(C)OC(=O)CCNC(=O)[C@H](CC(F)F)NC(=O)[C@@H]1[C@@H]2[C@H](CN1C(=O)[C@@H](NC(=O)OC(C)(C)C)C(C)(C)C)C2(C)C [Example 162]	> 500 nM
COC(=O)c1ccc(CCNC(=O)[C@H](CC(F)F)NC(=O)[C@@H]2[C@@H]3[C@H](CN2C(=O)[C@@H](NC(=O)N[C@H](C(=O)OC(C)(C)C)C(C)C)C(C)(C)C)C3(C)C)cc1 [Example 133]	100 to 500 nM
CC(C)[C@H](NC(=O)N[C@H](C(=O)N1C[C@@H]2OC(C)(C)C[C@@H]2[C@H]1C(=O)N[C@@H](CC(F)F)C(=O)NCCc1ccc(C(=O)O)cc1)C1CCCCC1)C(=O)OC(C)(C)C [Example 150]	> 500 nM
CC(C)(C)OC(=O)N[C@H](C(=O)N1C[C@H]2[C@@H]([C@H]1C(=O)NC(CC(F)F)C(=O)NCCc1ccccc1)C2(C)C)C(C)(C)C (some centres unmarked) [Example 151]	> 500 nM
CN(C)C(=O)[C@@H](NC(=O)CCNC(=O)[C@H](CC(F)F)NC(=O)[C@@H]1[C@@H]2[C@H](CN1C(=O)[C@@H](NC(=O)OC(C)(C)C)C(C)(C)C)C2(C)C)c1ccccc1 [Example 168] (Boc-[Tle][Pro(3R,4S-CMe2)][Abu(4,4-F2)][βAla][Phg]-NMe2)	> 500 nM
CC(C)(C)OC(=O)N[C@H](C(=O)N1C[C@H]2[C@@H]([C@H]1C(=O)N[C@@H](CC(F)F)C(=O)NCCC(=O)O)C2(C)C)C(C)(C)C [Example 169]	> 500 nM

same assay, conditions: Ki, Table 1; single chain NS4A21-32-GSGS-NS3 3-181 protease, 30° C., pH 6.5

Structure (SMILES)	Ki
CC(C)[C@@H](CN(C)S(=O)(=O)c1ccccc1)NC(=O)N[C@H](C(=O)N1C[C@H]2[C@@H]([C@H]1C(=O)N[C@@H](CC(F)F)C(=O)NCCc1ccc(C(=O)O)cc1)C2(C)C)C(C)(C)C [Example 112]	50 nM
CC(C)(C)[C@H](NC(=O)N[C@H](CN1CCCS1(=O)=O)C(C)(C)C)C(=O)N1C[C@H]2[C@@H](C1C(=O)NC(CC(F)F)C(=O)NCCc1ccc(C(N)=O)cc1Cl)C2(C)C (some centres unmarked) [Example 111]	42 nM

same assay, conditions: Ki, Table 3; rating; single chain NS4A21-32-GSGS-NS3 3-181 protease, 30° C., pH 6.5

Structure (SMILES)	Ki
CN(C[C@@H](NC(=O)N[C@H](C(=O)N1C[C@H]2[C@@H]([C@H]1C(=O)N[C@@H](CC(F)F)C(=O)NCCc1ccccc1)C2(C)C)C(C)(C)C)C(C)(C)C)S(C)(=O)=O [Example 258]	< 100 nM
CN(C[C@@H](NC(=O)N[C@H](C(=O)N1C[C@H]2[C@@H]([C@H]1C(=O)N[C@@H](CC(F)F)C(=O)NCCc1ccc(-c3ccccc3)cc1)C2(C)C)C(C)(C)C)C(C)(C)C)S(C)(=O)=O [Example 288]	< 100 nM
CCOc1ccc(CCNC(=O)[C@H](CC(F)F)NC(=O)[C@@H]2[C@@H]3[C@H](CN2C(=O)[C@@H](NC(=O)N[C@H](CN(C)S(C)(=O)=O)C(C)(C)C)C(C)(C)C)C3(C)C)cc1OC [Example 287]	< 100 nM
CN(C[C@@H](NC(=O)N[C@H](C(=O)N1C[C@H]2[C@@H]([C@H]1C(=O)N[C@@H](CC(F)F)C(=O)NC1CCCC1)C2(C)C)C(C)(C)C)C(C)(C)C)S(C)(=O)=O [Example 207]	> 500 nM
CN(C[C@@H](NC(=O)N[C@H](C(=O)N1C[C@H]2[C@@H]([C@H]1C(=O)N[C@@H](CC(F)F)C(=O)NS(=O)(=O)c1ccccc1)C2(C)C)C(C)(C)C)C(C)(C)C)S(C)(=O)=O [Example 257]	> 500 nM
CN(C)CC(C)(C)CNC(=O)[C@H](CC(F)F)NC(=O)[C@@H]1[C@@H]2[C@H](CN1C(=O)[C@@H](NC(=O)N[C@H](CN(C)S(C)(=O)=O)C(C)(C)C)C(C)(C)C)C2(C)C [Example 241]	> 500 nM
CN(C[C@@H](NC(=O)N[C@H](C(=O)N1C[C@H]2[C@@H]([C@H]1C(=O)N[C@@H](CC(F)F)C(=O)N[C@H]1C[C@H]1c1ccccc1)C2(C)C)C(C)(C)C)C(C)(C)C)S(C)(=O)=O [Example 307]	< 100 nM
COc1ccccc1CNC(=O)[C@H](CC(F)F)NC(=O)[C@@H]1[C@@H]2[C@H](CN1C(=O)[C@@H](NC(=O)N[C@H](CN(C)S(C)(=O)=O)C(C)(C)C)C(C)(C)C)C2(C)C [Example 222]	> 500 nM
CN(C[C@@H](NC(=O)N[C@H](C(=O)N1C[C@H]2[C@@H]([C@H]1C(=O)N[C@@H](CC(F)F)C(=O)NCCc1cccnc1)C2(C)C)C(C)(C)C)C(C)(C)C)S(C)(=O)=O [Example 236]	< 100 nM
CN(C[C@@H](NC(=O)N[C@H](C(=O)N1C[C@H]2[C@@H]([C@H]1C(=O)N[C@@H](CC(F)F)C(=O)N[C@@H]1c3ccccc3C[C@@H]1O)C2(C)C)C(C)(C)C)C(C)(C)C)S(C)(=O)=O [Example 247]	> 500 nM
CN(CCc1ccccc1)C(=O)[C@H](CC(F)F)NC(=O)[C@@H]1[C@@H]2[C@H](CN1C(=O)[C@@H](NC(=O)N[C@H](CN(C)S(C)(=O)=O)C(C)(C)C)C(C)(C)C)C2(C)C [Example 303]	> 500 nM
CC(Cc1ccc(Cl)cc1)NC(=O)[C@H](CC(F)F)NC(=O)[C@@H]1[C@@H]2[C@H](CN1C(=O)[C@@H](NC(=O)N[C@H](CN(C)S(C)(=O)=O)C(C)(C)C)C(C)(C)C)C2(C)C (some centres unmarked) [Example 296]	100 to 500 nM
CN(C[C@@H](NC(=O)N[C@H](C(=O)N1C[C@H]2[C@@H]([C@H]1C(=O)N[C@@H](CC(F)F)C(=O)NCCCn1ccnc1)C2(C)C)C(C)(C)C)C(C)(C)C)S(C)(=O)=O [Example 239]	> 500 nM
Cc1ccc(CCNC(=O)[C@H](CC(F)F)NC(=O)[C@@H]2[C@@H]3[C@H](CN2C(=O)[C@@H](NC(=O)N[C@H](CN(C)S(C)(=O)=O)C(C)(C)C)C(C)(C)C)C3(C)C)c(C)c1 [Example 266]	< 100 nM
CC(CNC(=O)[C@H](CC(F)F)NC(=O)[C@@H]1[C@@H]2[C@H](CN1C(=O)[C@@H](NC(=O)N[C@H](CN(C)S(C)(=O)=O)C(C)(C)C)C(C)(C)C)C2(C)C)c1ccccc1 (some centres unmarked) [Example 219]	< 100 nM
CCOc1ccc(CCNC(=O)[C@H](CC(F)F)NC(=O)[C@@H]2[C@@H]3[C@H](CN2C(=O)[C@@H](NC(=O)N[C@H](CN(C)S(C)(=O)=O)C(C)(C)C)C(C)(C)C)C3(C)C)cc1 [Example 274]	< 100 nM

same assay, conditions: read-out: Ki Rating; Table 2; single chain NS4A21-32-GSGS-NS3 3-181 protease, 30° C., pH 6.5

Structure (SMILES)	Ki
COC(=O)c1ccc(CCNC(=O)[C@H](CC(F)F)NC(=O)[C@@H]2[C@@H]3[C@H](CN2C(=O)[C@@H](NC(=O)N[C@H](C(=O)OC(C)(C)C)C(C)C)C(C)(C)C)C3(C)C)cc1 [Example 137]	100 to 500 nM
